Converted amounts (≈) assume the structure as drawn. Where only a bound is given, the exact number is not on record here.

The subject of the first data set is Homo sapiens. Briefly: Terminal half life in healthy human subjects dosed as single 400 mg dose on Day 1 followed by PK sampling (Days 1 to 14). The settings on record: in vivo. It counts as ADME, organism-based.
With `COc1nc2ccc(Br)cc2cc1[C@@H](c1ccccc1)[C@@](O)(CCN(C)C)c1cccc2ccccc12` [BEDAQUILINE], the beta t1/2 lay in the range of 5 to 6 months.

Another data set has as its system Mycobacterium tuberculosis. Nature of the data set: Growth inhibition of Mycobacterium tuberculosis H37Rv under aerobic condition after 4 days by MABA method. Particulars: 96 h. It counts as functional.
`COc1ncccc1C(c1cc2cc(Br)ccc2nc1OC)C(O)(CCN(C)C)c1cccc2c1OCO2` (mixture of isomers) showed an MIC90 of 0.24 µg/mL.

For another data set, the system named is Vero. Briefly: Cytotoxicity against African green monkey Vero cells after 72 hrs by MTS-PMS assay. It counts as cell-based. The settings on record: Chlorocebus sabaeus. For orientation: Formazan colour is commonly taken as a measure of viable cells.
In turn, `COc1nc2ccc(Br)cc2cc1[C@@H](c1cc(C)c(C)s1)[C@@](O)(CCN(C)C)c1cccc(F)c1` had an IC50 greater than 10 µg/mL. With `COc1nc2ccc(Br)cc2cc1[C@@H](c1ccc(N(C)C)nc1)[C@@](O)(CCN(C)C)c1cccc(F)c1`, the IC50 is greater than 10 µg/mL. Regarding `COc1nc2ccc(Br)cc2cc1[C@@H](c1ccnc(OC)c1OC)[C@@](O)(CCN(C)C)c1cccc(C#N)c1`, the IC50 was greater than 10 µg/mL.

On to `COc1nc2ccc(Br)cc2cc1[C@@H](c1ccnc(OC)c1OC)[C@@](O)(CCN(C)C)c1cccc(C)c1`, for which the half-inhibitory concentration (IC50) was greater than 10 µg/mL. Still for that read-out and setting: under `COc1cc([C@H](c2cc3cc(Br)ccc3nc2OC)[C@@](O)(CCN(C)C)c2cccc(F)c2)cnc1OC` stands greater than 10 µg/mL; under `COc1nc2ccc(Br)cc2cc1[C@@H](c1cccnc1N(C)C)[C@@](O)(CCN(C)C)c1cccc(F)c1`, greater than 10 µg/mL. `COc1nc2ccc(Br)cc2cc1[C@@H](c1ccnc(OC)c1OC)[C@@](O)(CCN(C)C)c1cccc(OC(F)F)c1` gave a concentration for half-maximal inhibition (IC50) greater than 10 µg/mL. In turn, `COc1nc2ccc(Br)cc2cc1[C@@H](c1cncc(C)c1)[C@@](O)(CCN(C)C)c1cccc(F)c1` showed a half-inhibitory concentration (IC50) greater than 10 µg/mL. Still for that read-out and setting: then `CCSc1ccc([C@H](c2cc3cc(Br)ccc3nc2OC)[C@@](O)(CCN(C)C)c2cccc(F)c2)cn1`, with greater than 10 µg/mL; and `COc1nc2ccc(Br)cc2cc1[C@@H](c1ccccc1)[C@@](O)(CCN(C)C)c1cccc2ccccc12` [BEDAQUILINE], with greater than 10 µg/mL.

The next data set deals with Mycolicibacterium smegmatis. Nature of the data set: Antitubercular activity against Mycobacterium smegmatis ATCC 607 incubated at 37 degC for 7 days by resazurin dye based fluorometry. The settings on record: ATCC 607, 168 h. Format: functional. (In general: The colour change of resazurin is a common sign of viable cells or microbes.)
Compound `COc1nc2ccc(Br)cc2cc1C(c1ccoc1)C(O)(CCN(C)C)c1ccccc1` (racemic) returned an IC90 of 0.06 to 1.57 µg/mL (≈ 0.121 to 3.17 µM).

A word on the MIC90: it is an inhibitory concentration at the 90% level, which refers to growth in some studies and to a panel of isolates in others. What is called IC50 is the concentration at which inhibition is half-maximal. A word on the IC90: it is the point of the concentration-response curve where the effect stands at 90%.

(Values after ChEMBL document CHEMBL4177672 (Bioorg Med Chem Lett, 2017).)
